Source: patent US5599953A, “C-glycoside analogues of N-(4-hydroxyphenyl)retinamide-O-glucuronide” (The Ohio State Research Foundation, priority 1995, dated 1997)
Entries after “also recorded” stand apart in the source; their conditions may differ. Read-outs that look alike come from different tables or passages of the source. Blank lines part the entries; values can stand above or below the molecule they belong to.

Tests used:
[1] = Acid stability, 0.1N HCl at 37° C. for two hours; type: physicochemical
Procedure: Similarly, 1-(D-glucopyranosyluronosyl) retinamide and RAG were treated with 0.1N HCl at 37° C. for two hours.

β-glucuronidase = target: T1, β-glucuronidase (Homo sapiens, UniProt P08236); experiment: Stability toward β-glucuronidase mediated hydrolysis; type: in vitro ADME; conditions: within twenty minutes
T1 sequence (P08236 23-651): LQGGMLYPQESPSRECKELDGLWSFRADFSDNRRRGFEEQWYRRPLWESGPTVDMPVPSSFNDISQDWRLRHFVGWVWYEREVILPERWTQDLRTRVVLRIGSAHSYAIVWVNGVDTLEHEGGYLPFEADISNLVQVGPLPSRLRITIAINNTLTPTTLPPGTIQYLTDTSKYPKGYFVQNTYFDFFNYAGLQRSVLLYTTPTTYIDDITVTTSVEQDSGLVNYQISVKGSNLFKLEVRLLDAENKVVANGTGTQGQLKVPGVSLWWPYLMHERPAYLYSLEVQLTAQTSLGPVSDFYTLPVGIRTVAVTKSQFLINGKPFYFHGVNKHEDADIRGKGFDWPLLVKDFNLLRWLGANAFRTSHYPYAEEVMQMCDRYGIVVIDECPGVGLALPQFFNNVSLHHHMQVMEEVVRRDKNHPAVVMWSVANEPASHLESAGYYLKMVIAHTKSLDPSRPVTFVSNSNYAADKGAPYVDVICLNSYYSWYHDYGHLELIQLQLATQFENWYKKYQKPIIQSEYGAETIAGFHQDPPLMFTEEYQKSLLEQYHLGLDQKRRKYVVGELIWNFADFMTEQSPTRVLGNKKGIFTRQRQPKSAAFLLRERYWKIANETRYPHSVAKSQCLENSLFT
Procedure: Similarly 1-(D-glucopyranosyluronosyl) retinamide and RAG were evaluated for their stability toward β-glucuronidase medicated hydrolysis under the same conditions as described above.

[2] = target: T2, human retinoic acid receptor γ (Homo sapiens, UniProt P13631); experiment: Competition binding / retinoic acid binding, human retinoic acid receptor γ/BCV (FIG. 1); conditions: 1.3 nM [3H]-retinoic acid
T2 construct: made in house
T2 sequence (P13631 1-454): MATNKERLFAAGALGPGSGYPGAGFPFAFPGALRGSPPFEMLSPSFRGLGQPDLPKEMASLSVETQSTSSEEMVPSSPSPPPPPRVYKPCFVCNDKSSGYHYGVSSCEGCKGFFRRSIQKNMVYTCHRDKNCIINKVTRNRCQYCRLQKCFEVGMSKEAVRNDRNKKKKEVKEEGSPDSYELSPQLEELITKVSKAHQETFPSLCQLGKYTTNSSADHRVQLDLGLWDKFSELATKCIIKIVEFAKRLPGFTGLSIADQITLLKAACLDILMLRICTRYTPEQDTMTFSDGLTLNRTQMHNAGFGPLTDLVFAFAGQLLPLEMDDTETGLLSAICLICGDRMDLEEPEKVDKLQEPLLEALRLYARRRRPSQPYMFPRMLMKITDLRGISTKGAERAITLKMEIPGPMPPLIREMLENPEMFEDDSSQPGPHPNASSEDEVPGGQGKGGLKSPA

[3] = test system: DMBA-Induced Rat Mammary Tumors; experiment: Effect on progression of DMBA-induced rat mammary tumors; type: in vivo; conditions: 1 mmol/Kg in diet; for tumor latency: 15 mg DMBA oral; for tumor incidents / tumor number/rat: 110 days post intubation
Text: The control rats received DMBA intubation only and AIN-76A rat chow.

[4] = test system: cultured human breast cancer cells; conditions: Bhatnagar et al.; cited from earlier work
mRARα = target: T3, mRARα (Mus musculus, UniProt P11416); experiment: Drug competition with (3H)retinoic acid binding, mRARα; conditions: read-out: percent reduction of binding of the (3H)retinoic acid, mRARα
T3 construct: made in house; host or cells: Spodoptera frugiperda insect cells, baculovirus (whole cell extract)
T3 sequence (P11416 1-462): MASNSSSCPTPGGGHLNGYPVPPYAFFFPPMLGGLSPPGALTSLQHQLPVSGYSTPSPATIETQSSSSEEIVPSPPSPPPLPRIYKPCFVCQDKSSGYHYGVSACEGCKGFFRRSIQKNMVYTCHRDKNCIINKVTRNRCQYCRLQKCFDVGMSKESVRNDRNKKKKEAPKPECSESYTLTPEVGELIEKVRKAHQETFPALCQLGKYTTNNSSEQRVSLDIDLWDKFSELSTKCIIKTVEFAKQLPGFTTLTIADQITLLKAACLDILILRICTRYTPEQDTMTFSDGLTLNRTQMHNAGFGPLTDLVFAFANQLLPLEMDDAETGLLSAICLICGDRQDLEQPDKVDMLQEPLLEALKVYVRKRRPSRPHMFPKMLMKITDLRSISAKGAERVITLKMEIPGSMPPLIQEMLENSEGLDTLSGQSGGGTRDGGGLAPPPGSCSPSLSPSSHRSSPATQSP

mRARγ = target: T4, mRARγ (Mus musculus, UniProt P18911); experiment: Drug competition with (3H)retinoic acid binding, mRARγ; conditions: read-out: percent reduction of binding of the (3H)retinoic acid, mRARγ; 1 μM drug; 5 nM [3H]RA
T4 construct: made in house; host or cells: Spodoptera frugiperda insect cells, baculovirus (whole cell extract)
T4 sequence (P18911 1-458): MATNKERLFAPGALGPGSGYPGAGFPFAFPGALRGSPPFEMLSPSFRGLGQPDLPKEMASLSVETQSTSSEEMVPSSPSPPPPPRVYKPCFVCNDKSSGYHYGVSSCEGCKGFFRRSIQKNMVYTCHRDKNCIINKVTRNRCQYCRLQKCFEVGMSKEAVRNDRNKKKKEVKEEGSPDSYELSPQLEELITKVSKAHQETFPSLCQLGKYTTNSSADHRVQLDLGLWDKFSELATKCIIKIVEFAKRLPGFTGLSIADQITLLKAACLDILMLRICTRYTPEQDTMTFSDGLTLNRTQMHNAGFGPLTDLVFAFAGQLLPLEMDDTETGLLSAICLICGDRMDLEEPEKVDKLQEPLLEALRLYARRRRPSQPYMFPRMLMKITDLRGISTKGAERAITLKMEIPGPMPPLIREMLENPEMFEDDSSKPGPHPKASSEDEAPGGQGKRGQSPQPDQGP

[5] = test system: carcinogen-induced rat mammary tumors; conditions: cited from earlier work
mRARβ = target: T5, mRARβ (Mus musculus, UniProt P22605); experiment: Drug competition with (3H)retinoic acid binding, mRARβ; conditions: read-out: percent reduction of binding of the (3H)retinoic acid, mRARβ; 1 μM drug; 5 nM [3H]RA
T5 construct: made in house; host or cells: Spodoptera frugiperda insect cells, baculovirus (whole cell extract)
T5 sequence (P22605 1-448 isoform P22605-3): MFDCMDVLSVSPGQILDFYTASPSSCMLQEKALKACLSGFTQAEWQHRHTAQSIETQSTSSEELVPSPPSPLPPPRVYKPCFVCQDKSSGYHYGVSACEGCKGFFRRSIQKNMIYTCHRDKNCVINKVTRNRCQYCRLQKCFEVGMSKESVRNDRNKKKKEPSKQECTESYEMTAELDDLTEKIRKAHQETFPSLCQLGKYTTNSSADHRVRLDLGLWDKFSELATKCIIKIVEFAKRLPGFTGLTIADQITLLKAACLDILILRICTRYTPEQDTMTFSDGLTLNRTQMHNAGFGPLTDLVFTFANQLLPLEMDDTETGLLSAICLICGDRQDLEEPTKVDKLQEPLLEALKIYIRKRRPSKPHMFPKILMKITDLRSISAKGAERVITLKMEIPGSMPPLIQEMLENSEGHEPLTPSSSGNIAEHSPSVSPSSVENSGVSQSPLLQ

MCF-7 cells = experiment: Growth inhibition of MCF-7 human mammary tumor cells; type: cell-based; conditions: Homo sapiens, MCF7, 168 h, 7 days, read-out: ED50 for growth inhibition of MCF-7 cells
Procedure: The antiproliferative activity of the drugs in MCF-7 human mammary tumor cell culture models were determined.
The MCF-7 cells were obtained originally from the Michigan Cancer Foundation. The cells were routinely grown as monolayers in T-25 plastic tissue culture flasks from Falcon, in Oxnard, Calif. containing 5.0 mL of B-10 medium consisting of Minimum Essential Medium (MEM, Earle's Base) supplemented with 1.0 mM MEM non-essential amino acid, 2.0 mM 1-glutamine,10% fetal bovine serum (FBS), and antibiotics. Culture conditions included a humidified atmosphere of 5% CO2 at 37° C. One-half of the medium was replenished twice a week. Cells were harvested by trypsinization upon confluency. All variables were evaluated in triplicate.
For the growth inhibition assay the MCF-7 cells were plated in 24-well plates at a density of 1.5×10^4 cells/cm^2. […] Control cultures were treated with an equivalent volume of absolute ethanol. On day 7 the cells were harvested by trypsinization and viability was assessed by trypan blue exclusion according to Ueda, H. et al. Cancer 1980, 46, 2203-2209. Total cell counts were obtained using a hemocytometer as well as a the Coulter Counter.

cancer = conditions: literature; cited from earlier work
[6] = test system: hamster tracheal in vitamin A deficient epithelial tissue; conditions: Newton et al.; cited from earlier work
[7] = substrate: CC1=C(/C=C/C(C)=C/C=C/C(C)=C/C(=O)Nc2ccc(O[C@@H]3O[C@H](C(=O)O)[C@@H](O)[C@H](O)[C@H]3O)cc2)C(C)(C)CCC1; experiment: Inhibition of β-glucuronidase mediated hydrolysis of 4-HPR-O-glucuronide; type: biochemical; conditions: other: 4-HPR-O-glucuronide as substrate
Text: Chem. Soc., (1954), 76, 4872-4877.

Molecule: CC1=C(/C=C/C(C)=C/C=C/C(C)=C/C(=O)O)C(C)(C)CCC1 [retinoic acid, reference compound]
- inhibition at 1 µM (mRARα): 100%
- inhibition at 1 µM (mRARγ): 100%
- reversal of metaplastic condition [6]: can reverse the metaplastic condition of hamster tracheal in vitamin A deficient epithelial tissue
- tumor latency [3]: 49 days
- tumor incidents [3]: 83%
- tumor number/rat [3]: 1.17 tumors per rat
- cancer preventive activity (cancer): display cancer preventive activity

B1: β-glucuronidase (Homo sapiens) (protein)
chain: T1 sequence (P08236 23-651)
- Km [7]: 184.5 µM

More lines, main results first:

- acid stability [1]: remained intact
- hydrolysis by β-glucuronidase within twenty minutes (β-glucuronidase): remained intact
- Ki [2]: 280 nM
Molecule: CC1=C(/C=C/C(C)=C/C=C/C(C)=C/C(=O)NC2O[C@H](C(=O)O)[C@@H](O)[C@H](O)[C@H]2O)C(C)(C)CCC1 (stereo partly drawn) [1-(D-glucopyranosyluronosyl) retinamide]
- effect on DMBA-induced mammary tumor development, in words [3]: significantly prolonged the latency period of mammary cancer; also recorded: tumor induction was markedly delayed and reduced; also recorded: caused the largest reduction in multiple mammary tumors; also recorded: greater mammary tumor chemopreventive effect than does retinoic acid; also recorded: inhibit DMBA induced mammary tumor development
- tumor latency [3]: 64 days
- tumor incidents [3]: 50%
- tumor number/rat [3]: 0.83 tumors per rat

- inhibition at 1 µM (mRARα; 1 μM drug, 5 nM [3H]RA): 18%
- inhibition at 1 µM (mRARγ): 7%
- inhibition at 1 µM (mRARβ): 5%
- IC50 (MCF-7 cells; Assay 1): 2800 nM
- IC50 (MCF-7 cells; Assay 2): 1500 nM
- IC50 (MCF-7 cells; Assay 3): 33000 nM
Molecule: CC1=C(/C=C/C(C)=C/C=C/C(C)=C/C(=O)Nc2ccc(O)cc2)C(C)(C)CCC1 [Example 4-HPR, N-(4-hydroxyphenyl) retinamide, reference compound]
- cytotoxicity [4]: significant cytotoxicity
- breast cancer chemopreventive activity combined with calcium glucarate [5]: synergistically exerts an increased breast cancer chemopreventive activity
- cancer preventive activity (cancer): displays chemopreventive activity in breast cancer
